Data: patent publication US6946458B2, “N-thiolated beta-lactams: novel antibacterial agents for methicillin-resistant Staphylococcus aureus” (University of South Florida, priority 1999, dated 2005)
Converted amounts (≈) assume the structure as drawn. “Also recorded” adds a separate entry of the source.

Tests used:
Staphylococcus aureus = test: MIC by agar dilution; format: cell-based
Source text: (§1) However, the N-alkylthio substituent is required, since reduction to the N—H analogue completely destroys the biological activity.

MRSA USF658 = test: Kirby-Bauer agar disk diffusion; format: cell-based, Staphylococcus aureus; conditions: Table 1; 6-mm disks, 20 μg test compound, 24 h, triplicate
Procedure, shortened: (§2)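 Read-out is the mean diameter (mm, n=3) of the zone without bacterial growth 24 h after applying a 6-mm disk carrying 20 μg of compound to an agar plate of β-lactamase-producing MRSA.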

MRSA USF652 = test: Kirby-Bauer agar disk diffusion; format: cell-based, Staphylococcus aureus; conditions: Table 1; 6-mm disks, 20 μg test compound, 24 h, triplicate
Procedure, shortened: as §2

MRSA USF656 = test: Kirby-Bauer agar disk diffusion; format: cell-based, Staphylococcus aureus; conditions: Table 1; 6-mm disks, 20 μg test compound, 24 h, triplicate
Procedure, shortened: as §2

MRSA USF653 = test: Kirby-Bauer agar disk diffusion; format: cell-based, Staphylococcus aureus; conditions: Table 1; 6-mm disks, 20 μg test compound, 24 h, triplicate
Procedure, shortened: as §2

MRSA USF655 = test: Kirby-Bauer agar disk diffusion; format: cell-based, Staphylococcus aureus; conditions: Table 1; 6-mm disks, 20 μg test compound, 24 h, triplicate
Procedure, shortened: as §2

MRSA USF657 = test: Kirby-Bauer agar disk diffusion; format: cell-based, Staphylococcus aureus; conditions: Table 1; 6-mm disks, 20 μg test compound, 24 h, triplicate
Procedure, shortened: as §2

MRSA USF659 = test: Kirby-Bauer agar disk diffusion; format: cell-based, Staphylococcus aureus; conditions: Table 1; 6-mm disks, 20 μg test compound, 24 h, triplicate
Procedure, shortened: as §2

MRSA USF654 = test: Kirby-Bauer agar disk diffusion; format: cell-based, Staphylococcus aureus; conditions: Table 1; 6-mm disks, 20 μg test compound, 24 h, triplicate
Procedure, shortened: as §2

[1] = system: cultures of S. aureus and MRSA; test: electron microscopy of cell morphology; format: cell-based, Staphylococcus aureus; conditions: Example 1; electron microscopy, high magnification; listed as FIG. 1D
Source text: The structure-bioactivity patterns observed for these N-thiolated lactams are highly atypical for a β-lactam antibiotic. The compounds are lipohilic and devoid of the typical acidic ring functionality required for recognition by the penicillin binding proteins. The implication that the lactams set forth in FIGS. 1A-1I are not acting in the same manner or on the same enzymes as the traditional β-lactam drugs is supported by electron microscopy experiments, which confirm that cell morphology is unaffected by the lactam of FIG. 1D (Greenwood, D. et al. Science, 1969, 163:1076).
(§3) In fact, only small isolated colonies of surviving cells can be found, all of which appear perfectly normal in size, shape, smoothness, and clustering behavior. […] Pulse radiolabeling experiments indicate that the lactam of FIG. 1D blocks the bacterial uptake of ^3H-uridine and ^3H-leucine at low (MIC) levels (Lim, D. V. et al. Microbiology, 1977, 33:328; Champney, W. S. and C. G. Tober Antimicrob. Agents and Chemother., 2000, 44:1413).
Light microscopy and scanning electron microscopy experiments have enabled us to look for cell wall damage in cultures of S. aureus and MRSA grown in the presence of N-methylthio lactam (FIG. 11F) over a range of different concentrations and cell growth conditions. […] Those cells that survive the treatment appear normal (coccal) and fully mature.

MRSA strains = test: MIC by agar dilution; format: cell-based, Staphylococcus aureus
Source text: as §1

S. simulans (ATCC 11631) = test: Kirby-Bauer agar disk diffusion; format: cell-based, Staphylococcus simulans; conditions: Table 1; 6-mm disks, 20 μg test compound, 24 h, triplicate
Procedure, shortened: (§4)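 Agar disk diffusion used 6-mm air-dried disks carrying 20 μg of compound. Values are mean diameters (mm) of the growth-inhibition zone at 24 h, from triplicate experiments. S. epidermidis and S. simulans were clinical isolates.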

MRSA cells = test: light microscopy after Gram staining; format: cell-based, Staphylococcus aureus; conditions: Example 1
Source text: as §3
(FIGS. 14A-14C) S. aureus is a Gram-positive microorganism, and thus reacts with Gram stain to produce a purple coloration due to binding of the stain to the peptidoglycan. 100% of MRSA cells grown either in the absence or presence of the lactam of FIG. 11F take on a purple color when Gram stained (top and center images, next page). In contrast, for MRSA cells treated with penicillin G or vancomycin (cell wall synthesis inhibitors), only about 30% of the cells are Gram-stained purple, with the remainder of the cells appearing pink (bottom image, next page) due to morphologically altered walls. This is strong evidence that the N-methylthio lactams are not affecting late stage events in cell wall biosynthesis.

[2] = system: S. saprophyticus (ATCC 3552); test: Kirby-Bauer agar disk diffusion; format: cell-based, Staphylococcus saprophyticus; conditions: Table 1; 6-mm disks, 20 μg test compound, 24 h, triplicate
Procedure, shortened: as §4

[3] = system: Staphylococcus aureus (ATCC 25923); test: Kirby-Bauer agar disk diffusion; format: cell-based; conditions: Table 1; 6-mm disks, 20 μg test compound, 24 h, triplicate
Procedure, shortened: as §4

Micrococcus luteus = test: Kirby-Bauer agar disk diffusion; format: cell-based; conditions: Table 1; 6-mm disks, 20 μg test compound, 24 h, triplicate
Procedure, shortened: as §4

[4] = system: Staphylococcus epidermidis; test: Kirby-Bauer agar disk diffusion; format: cell-based; conditions: Table 1; 6-mm disks, 20 μg test compound, 24 h, triplicate
Procedure, shortened: as §4

[5] = system: bacterial uptake of ^3H-uridine and ^3H-leucine; test: pulse radiolabeling experiments; format: cell-based; conditions: at low (MIC) levels
Source text: as §3

N. gonorrhoeae = test: Kirby-Bauer agar disk diffusion; format: cell-based, Neisseria gonorrhoeae; conditions: Table 1; 6-mm disks, 20 μg test compound, 24 h, triplicate; β-lactamase positive
Method: In this study, a selection of N-methylthio-substituted β-lactams are examined for antimicrobial activity by the Kirby-Bauer disk diffusion method on agar plates. A variety of common Gram-positive and Gram-negative bacteria are tested, including clinical isolates of methicillin-resistant Staphylococcus aureus (MRSA).
Compound susceptibility measurements are obtained from agar disk diffusion experiments using 6-mm air-dried disks impregnated with 20 μg of the test compound. The values correspond to the average diameters in mm (triplicate experiments) for the zone of growth inhibition observed after 24 h. Staphylococcus aureus (ATCC 25923) and β-lactamase-producing strains of methicillin-resistant Staphylococcus aureus (labeled as MRSA USF652-659) are obtained from Lakeland Regional Medical Center, Lakeland, Fla. Staphylococcus epidermidis, Staphylococcus simulans, Staphylococcus simulans, and Microcossus luteus are clinical isolates from University of South Florida Medical Clinic. Nieserria gonnorhoeae (β-lactamase positive) is obtained from the Tampa Branch State Laboratory. PenG is penicillin G (potassium salt). Table 1 provides the zones of growth inhibition that are observed after 24 hours using the lactams of FIGS. 1A-1I (designated A-I, respectively).

With `COC1C(=O)N(SC)C1c1ccccc1Cl` (racemic) [Lactam D] the “Minimum inhibitory concentration (MIC)” value (Staphylococcus aureus) was 15 µg/mL (≈ 58.2 µM), the “zone of growth inhibition, average diameter” value (shortened to “zone of growth inhibition”) (MRSA USF658) was 27 mm and the “zone of growth inhibition” value (MRSA USF652) was 30 mm. The “zone of growth inhibition” value (MRSA USF656) was 28 mm, the “zone of growth inhibition” value (MRSA USF653) was 30 mm and the “zone of growth inhibition” value (MRSA USF655) was 26 mm. The “zone of growth inhibition” value (MRSA USF657) was 28 mm, the “zone of growth inhibition” value (MRSA USF659) was 24 mm and the “zone of growth inhibition” value (MRSA USF654) was 26 mm. For the same molecule, the cell morphology [1] was “unaffected; also recorded: no visible damage or morphological deformities”, the “Minimum inhibitory concentration (MIC)” value (MRSA strains) was 5 to 10 µg/mL and the “zone of growth inhibition” value (S. simulans (ATCC 11631)) was 16 mm. For the same molecule, the “coloration upon Gram staining” value (MRSA cells) was “uniform purple coloration”, the “zone of growth inhibition” value [2] was 20 mm and the “zone of growth inhibition” value [3] was 26 mm. For the same molecule, the “zone of growth inhibition” value (Micrococcus luteus) was 24 mm, the “zone of growth inhibition” value [4] was 29 mm and the “bacterial uptake of ^3H-leucine” value [5] was “blocks”. For the same molecule, the “bacterial uptake of ^3H-uridine” value [5] was “blocks” and the “zone of growth inhibition” value (N. gonorrhoeae) was 19 mm.
